ChEMBL document CHEMBL1201862, “PubChem BioAssay data set” (2004)
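Step 1: Grow cells in 96-well plates. Step 2: Expose to compound for 48 hours at 5 concentrations. Step 3: Interpolate endpoints linearly; if unreached, use highest concentration. GI50 marks 50% less growth.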 The source made the active and inactive calls. Rule as the data show it: active = GI50 up to about 1.1 µM and inactive = higher.

Key:
Test in all cases: DTP human tumour cell line panel, 48 h
SNB-19 = tested on: SNB-19
K562 = tested on: K562
MDA-MB-231 = tested on: MDA-MB-231
HCT-15 = tested on: HCT-15
786-0 = tested on: 786-0
COLO 205 = tested on: COLO 205
U-251 = tested on: U-251
RPMI-8226 = tested on: RPMI-8226
KM12 = tested on: KM12
HT-29 = tested on: HT-29
Hs-578T = tested on: Hs-578T
HOP-92 = tested on: HOP-92
SF-268 = tested on: SF-268
SK-MEL-2 = tested on: SK-MEL-2
SK-MEL-28 = tested on: SK-MEL-28
OVCAR-3 = tested on: OVCAR-3
SF-295 = tested on: SF-295
NCI-H522 = tested on: NCI-H522
SR = tested on: SR
NCI-H460 = tested on: NCI-H460

Compound | GI50 (SNB-19) | GI50 (K562) | GI50 (MDA-MB-231) | GI50 (HCT-15) [µM] | GI50 (786-0) | GI50 (COLO 205) | GI50 (U-251) | GI50 (RPMI-8226) | GI50 (KM12) | GI50 (HT-29) | GI50 (Hs-578T) | GI50 (HOP-92) | GI50 (SF-268) | GI50 (SK-MEL-2) | GI50 (SK-MEL-28) | GI50 (OVCAR-3) | GI50 (SF-295) | GI50 (NCI-H522) | GI50 (SR) | GI50 (NCI-H460)
CC1CCCC2=C1C(c1ccc(Cl)cc1)n1c(s/c(=C\c3ccc(Cl)cc3)c1=O)=N2 (stereo not drawn) | > 100 µM (inactive) | > 100 µM (inactive) | > 100 µM (inactive) | > 100 | > 100 µM (inactive) | > 100 µM (inactive) | > 100 µM (inactive) | > 100 µM (inactive) | > 100 µM (inactive) | > 100 µM (inactive) | > 100 µM (inactive) | > 100 µM (inactive) | > 100 µM (inactive) | > 100 µM (inactive) | > 100 µM (inactive) |  |  |  |  | 
N#Cc1nc(C#N)c(NC(=O)c2ccccc2C(=O)O)[nH]1 | > 100 µM (inactive) | > 100 µM (inactive) | > 100 µM (inactive) |  | > 100 µM (inactive) | > 100 µM (inactive) | > 100 µM (inactive) | > 100 µM (inactive) | > 100 µM (inactive) | > 100 µM (inactive) | > 100 µM (inactive) | > 100 µM (inactive) | > 100 µM (inactive) | > 100 µM (inactive) | > 100 µM (inactive) | > 100 µM (inactive) | > 100 µM (inactive) | > 100 µM (inactive) |  | 
CC(C)(C)[Si](C)(C)Oc1ccc(C2CNC(=O)C23CCC(=O)N3Cc2ccccc2)cc1 (stereo not drawn) | 15 µM (inactive) | 7.24 µM (inactive) |  | 12.8 | 18.9 µM (inactive) | 11.7 µM (inactive) | 12.5 µM (inactive) | 4.15 µM (inactive) | 15.8 µM (inactive) | 12.2 µM (inactive) | 7.31 µM (inactive) | 17.1 µM (inactive) | 12.6 µM (inactive) | 16.6 µM (inactive) |  | 12.5 µM (inactive) | 13.9 µM (inactive) | 10.7 µM (inactive) | 7.96 µM (inactive) | 7.14 µM (inactive)
O=C(O)CC(NC(=O)C(F)(F)F)C(=O)NC1Cc2ccccc2OC1=O (stereo not drawn) | > 100 µM (inactive) | > 100 µM (inactive) |  | > 100 | > 100 µM (inactive) |  | > 100 µM (inactive) | > 100 µM (inactive) | > 100 µM (inactive) | > 100 µM (inactive) | > 100 µM (inactive) |  | > 100 µM (inactive) | > 100 µM (inactive) | > 100 µM (inactive) | > 100 µM (inactive) | > 100 µM (inactive) | > 100 µM (inactive) | > 100 µM (inactive) | > 100 µM (inactive)
O=C(NC(=O)c1ccccc1)OC(c1ccccc1)C1CO1 (stereo not drawn) | > 100 µM (inactive) | > 100 µM (inactive) | > 100 µM (inactive) | > 100 | > 100 µM (inactive) | > 100 µM (inactive) | > 100 µM (inactive) | > 100 µM (inactive) | > 100 µM (inactive) | > 100 µM (inactive) | > 100 µM (inactive) |  | > 100 µM (inactive) | > 100 µM (inactive) | > 100 µM (inactive) | > 100 µM (inactive) | > 100 µM (inactive) | > 100 µM (inactive) |  | > 100 µM (inactive)
COC(=O)C(CSSC[C@H](N/C(C)=C/C(C)=O)C(=O)OC)N/C(C)=C/C(C)=O (stereo partly drawn) | > 100 µM (inactive) | 33.3 µM (inactive) | > 100 µM (inactive) |  | 32.2 µM (inactive) | > 100 µM (inactive) | 33.3 µM (inactive) | 21.3 µM (inactive) | 28.8 µM (inactive) | 38.7 µM (inactive) | 21.6 µM (inactive) | 32.5 µM (inactive) | 42.2 µM (inactive) | > 100 µM (inactive) | > 100 µM (inactive) | 4.17 µM (inactive) | 35.2 µM (inactive) | 13.9 µM (inactive) |  | > 100 µM (inactive)
Cn1c(=O)c2c(nc3sc4ncccc4c(=O)n32)n(C)c1=O | > 100 µM (inactive) |  | > 100 µM (inactive) | > 100 | > 100 µM (inactive) | > 100 µM (inactive) | > 100 µM (inactive) | > 100 µM (inactive) | > 100 µM (inactive) | > 100 µM (inactive) | > 100 µM (inactive) | > 100 µM (inactive) | > 100 µM (inactive) | > 100 µM (inactive) | > 100 µM (inactive) | > 100 µM (inactive) | > 100 µM (inactive) |  |  | > 100 µM (inactive)
CC(CN(C)C)C(=O)c1ccccc1C(=O)O (stereo not drawn) | 39.2 µM (inactive) | 30.9 µM (inactive) | 18.8 µM (inactive) | 31.6 | 24.2 µM (inactive) | 25.4 µM (inactive) | 16.1 µM (inactive) | 18.5 µM (inactive) | 30.5 µM (inactive) | 38.7 µM (inactive) | 11.1 µM (inactive) | 41.9 µM (inactive) | 14.1 µM (inactive) | 15.7 µM (inactive) | 31.2 µM (inactive) | 14.7 µM (inactive) | 41.9 µM (inactive) | 10.7 µM (inactive) |  | 
